Values quoted from earlier work as cited in patent US20180161299A1, “ESSENTIAL NUTRIENTS AND RELATED METHODS” (Balchem Corporation, priority 2016, published 2018).

Key:
[1] = pregnant women, choline intake increased from 480 mg to 930 mg

choline excreted in the urine [1]	increase in the amount of B12 analogues present in the GI tract and in the circulation (large oral and systemic doses of B12)	vitamin B12 absorbed by diffusion from the gastrointestinal tract (large oral doses (500 μg to 5000 μg))	vitamin B12 absorbed (typical oral vitamin B12 supplementations)	Compound
little, if any				C[N+](C)(C)CCO [choline, N,N,N-trimethylethanolammonium cation]
	more than 10 fold	less than 1%	less than 1%	cobalamin [Vitamin B12]
